# Measured values reported in US5912224A, “Methods and compositions for enhancing cellular response to TGF-β ligands” (priority 1997, dated 1999).
# Tests used:
# [1] = molecular target: FKBP12 mutant (G89P, 190K) (Homo sapiens, UniProt P62942, G90P/I91K); conditions: mutations within the 80s loop; cited from earlier work
# FKBP12 = FKBP12 (Homo sapiens, UniProt P62942); conditions: cited from earlier work
# [2] = molecular target: T1, FKBP12 binding to R4C (cytoplasmic domain of TGF-β type I receptor) (Rattus norvegicus, UniProt Q62658); conditions: excess macrolide, yeast cells; cited from earlier work
# T1 construct: host or cells: yeast (two-hybrid)
# T1 sequence (Q62658 whole entry, the tested form may be a part): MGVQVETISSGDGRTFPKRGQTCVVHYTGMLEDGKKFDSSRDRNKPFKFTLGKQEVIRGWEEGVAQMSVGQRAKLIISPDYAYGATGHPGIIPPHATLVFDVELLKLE
# Mv1Lu cells [3] = experiment: Growth inhibition assay; assay type: cell-based, mink; conditions: for growth inhibition, macrolide alone: each alone, added to Mv1Lu cells
# Description: Growth Inhibition Assay Mv1Lu cells were seeded in 12-well plate at 3×10^4 cells/well and incubated overnight. Cells were treated with 15-O-demethyl FK520 for 2 hours and with TGF-β for 36 to 40 hours in the presence of the drug. Cells were trypsinized, and cell numbers were determined in a Coulter counter.
# To distinguish between these possibilities, both 15-O-desmethyl-FK520 and L685,818 were used to test the role of FKBP12 in the signaling events mediated by TGF-β, and yielded very similar results; here we report the results from using 15-O-desmethyl-FK520. In the absence of 15-O-desmethyl-FK520, TGF-β elicits two cellular responses when added into the mink lung epithelial cell line Mv1Lu: the growth inhibition response, which can be detected by a decrease in cell number, and the gene activation response, which can be measured by an increase in the luciferase activities resulting from the activation of a transfected luciferase reporter gene regulated by a Plasminogen Activator Inhibitor (PAI) promotor (Wrana, J. L. et al., Cell 71:1003-1014 (1992)). […] Therefore, FKBP12 binding to the TGF-β type I receptor is not necessary, but is inhibitory to the type I receptor mediated signaling, and release of FKBP12 is not sufficient for complete activation of the downstream signaling events in the absence of TGF-β.
# [4] = test system: FKBP12 mutant D37G (mFKBP12); conditions: point mutation within the macrolide binding site; cited from earlier work
# [5] = test system: FKBP12 (T7 tagged) binding to TGF-β type I receptor (R4); experiment: R4/FKBP12 co-immunoprecipitation competition in transfected COS cells; assay type: cell-based; conditions: for block of R4/FKBP12 co-immunoprecipitation: 100 nM derivative, COS cells transfected with R4 and T7 tagged FKBP12
# Description: For testing FKBP12 binding to ligand-free TGF-β type I receptor (either wild type or mutants) by co-immunoprecipitations, COS1 cells grown in P-100 dishes were transfected with 4 μg of T7 tagged FKBP12 in pCMV8 and 6 μg of R4 (or mutant R4) in pCMV6 using the DEAE-dextran method. In the case of using metabolic labeling to detect co-precipitation of FKBP12 and R4, 40-44 hours after transfection COS1 cells were incubated for 4 hours with 50 μCi/ml [^35 S]-methionine in methionine-free media and lysed in lysis buffer (20 mM Tris-HCl [pH 7.4], 150 mM NaCl, 0.5% Triton X-100, 1 mM EDTA) in the presence of a mixture of protease inhibitors. Anti-T7 monoclonal antibody (5 μl) was added into 200 μl of cell lysates, incubated at 4° C. for 2 hours, absorbed with protein A sepharose beads, and washed three times with wash buffer (20 mM Tris-HCl [pH 7.4], 150 mM NaCl, 0.1% Triton X-100, 1 mM EDTA). Proteins were eluted from the sepharose beads using 2× SDS-PAGE denaturing sample buffer, separated on 15% SDS-PAGE. The gel was treated with Autofluor (National Diagnostic), dried and subjected to autoradiography for 48 hours. In the case of using Western blot to detect co-precipitated T7 tagged FKBP12, cell lysates were immunoprecipitated with 10 μl of VPN antiserum, which recognizes a juxtamembrane region of the TGF-β type I receptor (Franzen, P. et al., Cell 75:681-692 (1993)). The immunoprecipitates were separated on 15% SDS-PAGE, electrotransferred onto nitrocellulose membrane, blotted using anti-T7 monoclonal antibody, and detected by ECL (Amersham).
# For testing the effect of non-functional FK506 derivatives (L685,818 from Merck Laboratories and 15-O-desmethyl-FK520 from Sandoz) on FKBP12 binding to R4, 2 hours after transfection COS1 cells were treated with the derivatives for […] and then labeled for 4 hours with 50 μCi/ml [^35 S]-methionine in methionine-free media 40-44 hours after transfection. Cells were then lysed and immunoprecipitation was carried out as described above. […]
# Mullerian duct = experiment: Urogenital ridge organ culture assay (MIS-mediated Mullerian duct regression); parameters: species or system rat
# Description: The organ culture assay was carried out as described previously (Donahoe, P. K. et al., J. Surg. Res. 23:141-148 (1977)). Briefly, urogenital ridges containing Wolffian and Mullerian ducts from 14.5 day female rat fetuses were maintained in CMRL media with 10% fetal calf serum, 100 units/ml penicillin, and 100 μg/ml streptomycin. To test the effect of the non-functional derivatives of FK506 (L685,818 or 15-O-desmethyl FK520) on Mullerian duct regression, the specimens were treated with the indicated doses of MIS in the presence or absence of the non-functional derivatives of FK506 and incubated at 37° C. in 5% CO2 and 95% air. After 72 hours, the specimens were fixed in formalin, dehydrated in an alcohol series, cleared in xylene, embedded in paraffin, cut in serial cross sections, stained with hematoxylin and eosin and graded for regression of the Mullerian duct as described (Donahoe, P. K. et al., J. Surg. Res. 23:141-148 (1977)).
# Since FKBP12 binds to all known type I receptors, its inhibitory activity should therefore also be detected in the signaling events mediated by other TGF-β family members. Mullerian Inhibiting Substance (MIS) is a unique member of the TGF-β family known to be responsible for regression of the Mullerian duct in fetal males through an active apoptotic process (Jost, A., Arch. Anat. Micro. Morph. Exp. 36:271-315 (1947); Price, J. M. et al., Am. J. Anat. 149:353-376 (1977); Trelstad, R. L. et al., Devl. Bio. 92:27-40 (1982)). The activity of MIS in the regression of the Mullerian ducts can be measured directly in an organ culture assay (Donahoe, P. K. et al., J. Surg. Res. 23:141-148 (1977)). In this assay, urogenital ridges containing both the Wolffian duct and the Mullerian duct are isolated from fourteen and a half day female fetuses. […] When 1 μg MIS was added into the organ culture, grade 1.5 regression was observed, which histologically corresponds to a condensation of the mesenchymal cells surrounding a smaller and irregularly shaped Mullerian duct (FIG. 5, A, top panel). […] We further tested the effect of 1 μM 15-O-desmethyl-FK520 on the regression activities of different doses of MIS (FIG. 5, B).
# Mv1Lu cells [6] = experiment: Transcriptional response assay (p3TP-lux luciferase reporter); assay type: cell-based, mink
# Source text: Two TGF-β responsive mink lung epithelial cell lines Mv1Lu and L17, the latter being a highly transfectable clone of R1B lacking the functional type I receptor of TGF-β, were used in a transcriptional response employing a DEAE-dextran method (Bassing, C. et al., Science 263:87-89 (1994); Wrana, J. L. et al., Nature 370:341-47 (1994)). Briefly, cells grown to 50% confluency in 6-well plates were transiently transfected with the transcriptional response reporter construct p3TP-lux alone or together with different constructs of the type I receptor. Sixteen to twenty hours after transfection, cells were treated with TGF-β in 0.2% serum medium for 24 to 28 hours. For testing the effect of FK506 derivative 15-O-desmethyl FK520, cells were treated with the drug beginning two hours prior to the addition of TGF-β. Cell lysates were made and luciferase activity was measured in a luminometer. Each assay was carried out in duplicate or triplicate.
# To distinguish between these possibilities, both 15-O-desmethyl-FK520 and L685,818 were used to test the role of FKBP12 in the signaling events mediated by TGF-β, and yielded very similar results; here we report the results from using 15-O-desmethyl-FK520. […]
# [7] = in vivo; cited from earlier work
# [8] = macrolide up to 1 μM together with TGF-β 15 pM
# FKBP12, sequence (P62942 whole entry, the tested form may be a part): as the sequence (Q62658 whole entry, the tested form may be a part) above, with S10P, T50M, I76T counted along it
# FKBP12 mutant (G89P, 190K), sequence (P62942 2-108 G90P/I91K limits assumed): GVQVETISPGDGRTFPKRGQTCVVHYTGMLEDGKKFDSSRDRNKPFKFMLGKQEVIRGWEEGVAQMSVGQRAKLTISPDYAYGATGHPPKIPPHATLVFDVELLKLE
SMILES,"binding to FKBP12 (G89P, 190K) [1]",affinity for FKBP12 (FKBP12),competition for binding of R4C to FKBP12 [2],"growth inhibition, macrolide alone (Mv1Lu cells [3])",binding to FKBP12 D37G [4],block of R4/FKBP12 co-immunoprecipitation [5],"Mullerian duct regression (Mullerian duct; 1 μM macrolide alone, no MIS)",Mullerian duct regression grade (0 no regression to 5 complete regression) (Mullerian duct; 1 μM macrolide together with 1 μg MIS),"regression activity of 0.1 μg MIS in presence of macrolide (Mullerian duct; 1 μM macrolide with 0.1 μg MIS, compared with 1 μg MIS alone)","gene activation response, macrolide alone (Mv1Lu cells [6]; 1 μM alone, no TGF-β)",TGF-β gene activation response (luciferase activity) (Mv1Lu cells [6]; [8]),"growth inhibition response, macrolide alone (Mv1Lu cells [3]; 1 μM alone, no TGF-β)",TGF-β growth inhibition response (decrease in cell number) (Mv1Lu cells [3]; [8]),toxicity in animal models [7],"block of R4 interaction with FKBP12 ([5]; 50 nM, COS cells, FIG. 4A lane 3)",Mullerian duct regression grade (Mullerian duct; 500 nM macrolide alone),Mullerian duct regression (Mullerian duct; 500 nM macrolide together with 2 μg MIS)
C=CC[C@@H]1/C=C(\C)C[C@H](C)C[C@H](OC)[C@H]2O[C@@](O)(C(=O)C(=O)N3CCCC[C@H]3C(=O)O[C@H](/C(C)=C/[C@@H]3CC[C@@H](O)[C@H](OC)C3)[C@H](C)[C@@H](O)CC1=O)[C@H](C)C[C@@H]2OC [FK506],without affecting,bind strongly,could partially compete,exhibited growth inhibition activities,abolishes FKBP12 binding,–,–,–,–,–,–,–,–,–,–,–,–
CO[C@H]1C[C@@H]2CC[C@@H](C)[C@@](O)(O2)C(=O)C(=O)N2CCCC[C@H]2C(=O)O[C@H]([C@H](C)C[C@@H]2CC[C@@H](O)[C@H](OC)C2)CC(=O)[C@H](C)/C=C(\C)[C@@H](O)[C@@H](OC)C(=O)[C@H](C)C[C@H](C)/C=C/C=C/C=C/1C [rapamycin],–,bind strongly,–,exhibited growth inhibition activities,abolishes FKBP12 binding,–,–,–,–,–,–,–,–,–,–,–,–
CC[C@@H]1/C=C(\C)C[C@H](C)C[C@H](O)[C@H]2O[C@@](O)(C(=O)C(=O)N3CCCC[C@H]3C(=O)O[C@H](/C(C)=C/[C@@H]3CC[C@@H](O)[C@H](OC)C3)[C@H](C)[C@@H](O)CC1=O)[C@H](C)C[C@@H]2OC [15-O-desmethyl-FK520],–,binds with high affinity,–,–,–,able to block R4/FKBP12 co-immunoprecipitation,no regression activity was detected,5 grade,more biological activity than 1 μg MIS alone,Neither of the responses were detected,greatly enhanced,Neither of the responses were detected,greatly enhanced,do not induce toxicity,–,–,–
"CC[C@@H]1/C=C(\C)C(O)[C@H](C)C[C@H](OC)[C@H]2O[C@@](O)(C(=O)C(=O)N3CCCC[C@H]3C(=O)O[C@H](/C(C)=C/[C@@H]3CC[C@@H](O)[C@H](OC)C3)[C@H](C)[C@@H](O)CC1=O)[C@H](C)C[C@@H]2OC (stereo partly drawn) [L685,818]",–,binds with high affinity,–,–,–,able to block R4/FKBP12 co-immunoprecipitation,–,–,–,–,–,–,–,do not induce toxicity,block R4 interaction with FKBP12,1 Grade,complete regression
